Test results as given in US20120178742A1, “METABOTROPIC GLUTAMATE RECEPTOR MODULATORS” (MERZ PHARMA GmbH & CO. KGaA, priority 2009, published 2012).
pEC50, pIC50: −log10 of the molar value.

What was measured:
monoamine oxidase MAO-B = target: T1, monoamine oxidase MAO-B (Homo sapiens, UniProt P27338); assay: Inhibition of monoamine oxidase MAO-B; type: biochemical; conditions: recombinant human enzyme expressed in insect Hi5 cells, 50 uM kynuramine
T1 construct: host or cells: insect Hi5 cells
T1 sequence (P27338 1-520): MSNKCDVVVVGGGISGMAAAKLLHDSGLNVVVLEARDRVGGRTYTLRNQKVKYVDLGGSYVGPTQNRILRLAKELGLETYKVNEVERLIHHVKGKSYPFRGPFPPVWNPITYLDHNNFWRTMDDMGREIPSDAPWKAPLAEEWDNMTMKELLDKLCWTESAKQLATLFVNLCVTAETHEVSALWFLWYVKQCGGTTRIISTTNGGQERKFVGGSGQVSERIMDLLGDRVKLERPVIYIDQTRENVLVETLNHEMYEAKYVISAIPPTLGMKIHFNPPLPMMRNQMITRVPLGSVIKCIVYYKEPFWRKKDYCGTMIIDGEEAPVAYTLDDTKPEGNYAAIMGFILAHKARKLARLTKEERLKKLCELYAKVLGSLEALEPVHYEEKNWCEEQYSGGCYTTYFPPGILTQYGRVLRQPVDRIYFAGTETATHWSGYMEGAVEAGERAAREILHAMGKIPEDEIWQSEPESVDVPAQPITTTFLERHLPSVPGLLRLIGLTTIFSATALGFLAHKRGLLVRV
Description: The inhibition of the enzyme monoamine oxidase MAO-B is tested with an enzyme from recombinant source, namely of the human enzyme expressed in insect Hi5 cells. Following a pre-incubation of the test compounds with the enzyme for 15 minutes at 37° C. in the incubation buffer (100 mM potassium phosphate, pH 7.4), the enzymatic reaction with 50 uM kynuramine is carried out for 60 minutes. The reaction product 4-hydroxyquinoline is quantified by spectrofluorometry. The compound vehicle used for this assay is 1% DMSO.

[1] = target: T2, human metabotropic glutamate receptor mGluR5 (Homo sapiens, UniProt P41594); assay: Cytosolic calcium studies with stably transfected cells (CHO-K1); type: cell-based
T2 construct: expressed in transfected cells; host or cells: CHO-K1
Description: Functional Assay of mGluR5 Receptors Cytosolic Calcium Studies with Stably Transfected Cells
Chinese hamster ovary cells (CHO-K1 cells), stably transfected for inducible expression of a human metabotropic glutamate receptor mGluR5, are seeded into black clear bottom 96 well plates at a density of 35.000 cells per well. The standard growth medium used (Dulbecco's modified Eagle Medium, DMEM plus L-proline) contains the appropriate inducer isopropyl-β-D-thiogalactopyranosid (IPTG) to achieve optimal receptor expression. One day after seeding the growth medium is exchanged for reconstituted Ca-Kit (Molecular Devices, USA) and incubated for one hour. Ca-Kit is reconstituted in an assay buffer containing 20 mM HEPES pH 7.4, glutamic-pyruvate transaminase, pyridoxal phosphate and sodium pyruvate in Hank's balanced salt solution (HBBS). Agonistic compounds to the receptor elicit increases in cytosolic calcium which can be measured as increases in fluorescence signals by use of a fluorescence imaging plate reader (Molecular Devices). […] Similarly, for the characterization of positive allosteric modulators, a dilution series of the test compound is added online to 384 well plates containing the described dye loaded cells and after a preincubation time of 5 minutes stimulated by a basal cell concentration of the agonist L-glutamate giving about 20% of the maximal signal.
(§1) The fluorescence signal increase after addition of agonist reflects the increase of cytosolic calcium. Inconsistencies in the amount of cells per well are normalised by using the spatial uniformity correction of the FLIPR operating software Screenworks. The mean of replicated temporal data (n=3-5) is calculated and used for graphical representation. For the evaluation of the pharmacology, the calcium changes in response to different concentrations of agonist or antagonist are determined using a maximum minus minimum (MaxMin) calculation.
(§2) All responses (RFU-values) are determined as percentage of control (=maximum response). EC50 and IC50 are calculated according the logistic equation using Prism 4.0 (GraphPad Software, USA).

mGluR5 receptors = target: T3, mGluR5 receptors (Rattus norvegicus, UniProt P31424); assay: Cytosolic calcium studies with cultured rat astrocytes; type: cell-based
T3 construct: Primary astrocyte cultures are prepared from cortices of newborn rats; endogenous in cells; host or cells: primary rat cortical astrocytes (Sprague-Dawley pups)
Description: Primary astrocyte cultures are prepared from cortices of newborn rats as described by Booher and Sensenbrenner (1972, Neurobiology 2(3):97-105). Briefly, Sprague-Dawley rat pups (2-4 d old) are decapitated and neocortices are dissected, disintegrated with a nylon filter (pore size 80 μm) and carefully triturated. The cell suspension is plated on poly-D-lysine pre-coated flasks (Costar, Netherlands) and cultivated in Dulbecco's Modified Eagle's Medium (DMEM, Invitrogen, Germany) supplemented with 10% foetal calf serum (FCS, Sigma, Germany), 4 mM glutamine and […] gentamycin (both Biochrom, Germany) at 37° C. in a humidified atmosphere of 5% CO2/95% air for 7 days with exchanging the medium at day 2 and 6.
After 7 days in vitro (DIV), cells are shaken overnight at 250 rpm to remove oligodendrocytes and microglia. The next day, astrocytes are rinsed twice with CMF-PBS (calcium- and magnesium-free phosphate buffered saline, Biochrom, Germany), trypsinized and subplated on poly-D-lysine pre-coated 96-well plates (Greiner, Germany) at a density of 40,000 cells/well. 24 h after establishing the secondary culture the astrocytes are rinsed with PBS″ (phosphate buffered saline, Biochrom, Germany) and fed with astrocyte-defined medium (ADM) consisting of DMEM containing 1× G5-supplement (Invitrogen, Germany), 0.5 μg/ml heparan sulfate, and 1.5 μg/ml fibronectin (both Sigma, Germany) (Miller et al., (1993) Brain Res. 618(1):175-8). 3 days later the medium is exchanged and the cells incubated for another 2-3 days, so that at the time of experiments astrocytes are 14-15 DIV.
The increase of cytosolic calcium after stimulation with the mGluR5 agonist L-quisqualate is measured using a fluorometric imaging plate reader (FLIPR) and the Ca-Kit (both Molecular Devices). Prior to addition of agonist or antagonist the medium is aspirated and cells are loaded for 2 h at RT with 150 μl of loading buffer consisting of Ca-sensitive dye reconstituted in sodium chloride (123 mM), potassium chloride (5.4 mM), magnesium chloride (0.8 mM), calcium chloride (1.8 mM), D-glucose (15 mM), and HEPES (20 mM), pH 7.3. Subsequently, plates are transferred to FLIPR to detect calcium increase with the addition of L-quisqualate (100 nM) measured as relative fluorescence units (RFU). If antagonists are tested, these compounds are pre-incubated for 10 minutes at RT before addition of the respective agonist.
Thereafter, concentration-response curves for the positive modulator are performed in the presence of a fixed concentration of quisqualate showing the biggest window for potentiation (normally 10-30 nM).
as §1, §2

T2 sequence (P41594 21-1212): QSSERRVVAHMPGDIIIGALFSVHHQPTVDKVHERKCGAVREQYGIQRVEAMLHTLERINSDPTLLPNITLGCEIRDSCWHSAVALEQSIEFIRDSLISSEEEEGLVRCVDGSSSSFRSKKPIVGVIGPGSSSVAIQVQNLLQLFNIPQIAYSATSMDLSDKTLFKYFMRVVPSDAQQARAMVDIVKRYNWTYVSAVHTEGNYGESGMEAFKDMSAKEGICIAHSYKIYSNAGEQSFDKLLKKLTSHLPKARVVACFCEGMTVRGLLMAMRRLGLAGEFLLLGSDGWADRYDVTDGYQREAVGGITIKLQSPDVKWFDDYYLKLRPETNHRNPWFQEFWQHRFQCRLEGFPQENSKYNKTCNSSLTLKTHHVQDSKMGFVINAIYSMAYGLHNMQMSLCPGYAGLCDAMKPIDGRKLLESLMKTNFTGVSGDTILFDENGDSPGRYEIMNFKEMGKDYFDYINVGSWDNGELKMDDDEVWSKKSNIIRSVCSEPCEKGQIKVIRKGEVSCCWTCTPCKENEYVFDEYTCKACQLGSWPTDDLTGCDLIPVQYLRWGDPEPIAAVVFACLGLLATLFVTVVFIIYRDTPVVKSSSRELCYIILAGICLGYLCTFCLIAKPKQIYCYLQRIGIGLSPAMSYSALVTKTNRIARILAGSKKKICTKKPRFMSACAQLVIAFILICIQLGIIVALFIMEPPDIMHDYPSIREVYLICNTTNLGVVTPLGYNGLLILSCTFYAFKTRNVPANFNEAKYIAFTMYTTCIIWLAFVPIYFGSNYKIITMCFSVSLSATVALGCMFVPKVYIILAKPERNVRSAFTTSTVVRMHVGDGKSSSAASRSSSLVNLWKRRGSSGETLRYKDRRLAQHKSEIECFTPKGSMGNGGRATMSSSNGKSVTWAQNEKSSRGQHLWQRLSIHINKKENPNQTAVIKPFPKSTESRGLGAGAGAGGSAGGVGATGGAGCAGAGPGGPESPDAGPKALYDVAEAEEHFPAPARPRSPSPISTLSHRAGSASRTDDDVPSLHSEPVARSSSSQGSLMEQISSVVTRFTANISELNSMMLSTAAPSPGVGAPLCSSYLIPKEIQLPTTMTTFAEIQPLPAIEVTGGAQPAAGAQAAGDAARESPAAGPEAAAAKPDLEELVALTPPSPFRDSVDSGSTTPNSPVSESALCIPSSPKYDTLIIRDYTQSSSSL
T3 sequence (P31424 21-1203): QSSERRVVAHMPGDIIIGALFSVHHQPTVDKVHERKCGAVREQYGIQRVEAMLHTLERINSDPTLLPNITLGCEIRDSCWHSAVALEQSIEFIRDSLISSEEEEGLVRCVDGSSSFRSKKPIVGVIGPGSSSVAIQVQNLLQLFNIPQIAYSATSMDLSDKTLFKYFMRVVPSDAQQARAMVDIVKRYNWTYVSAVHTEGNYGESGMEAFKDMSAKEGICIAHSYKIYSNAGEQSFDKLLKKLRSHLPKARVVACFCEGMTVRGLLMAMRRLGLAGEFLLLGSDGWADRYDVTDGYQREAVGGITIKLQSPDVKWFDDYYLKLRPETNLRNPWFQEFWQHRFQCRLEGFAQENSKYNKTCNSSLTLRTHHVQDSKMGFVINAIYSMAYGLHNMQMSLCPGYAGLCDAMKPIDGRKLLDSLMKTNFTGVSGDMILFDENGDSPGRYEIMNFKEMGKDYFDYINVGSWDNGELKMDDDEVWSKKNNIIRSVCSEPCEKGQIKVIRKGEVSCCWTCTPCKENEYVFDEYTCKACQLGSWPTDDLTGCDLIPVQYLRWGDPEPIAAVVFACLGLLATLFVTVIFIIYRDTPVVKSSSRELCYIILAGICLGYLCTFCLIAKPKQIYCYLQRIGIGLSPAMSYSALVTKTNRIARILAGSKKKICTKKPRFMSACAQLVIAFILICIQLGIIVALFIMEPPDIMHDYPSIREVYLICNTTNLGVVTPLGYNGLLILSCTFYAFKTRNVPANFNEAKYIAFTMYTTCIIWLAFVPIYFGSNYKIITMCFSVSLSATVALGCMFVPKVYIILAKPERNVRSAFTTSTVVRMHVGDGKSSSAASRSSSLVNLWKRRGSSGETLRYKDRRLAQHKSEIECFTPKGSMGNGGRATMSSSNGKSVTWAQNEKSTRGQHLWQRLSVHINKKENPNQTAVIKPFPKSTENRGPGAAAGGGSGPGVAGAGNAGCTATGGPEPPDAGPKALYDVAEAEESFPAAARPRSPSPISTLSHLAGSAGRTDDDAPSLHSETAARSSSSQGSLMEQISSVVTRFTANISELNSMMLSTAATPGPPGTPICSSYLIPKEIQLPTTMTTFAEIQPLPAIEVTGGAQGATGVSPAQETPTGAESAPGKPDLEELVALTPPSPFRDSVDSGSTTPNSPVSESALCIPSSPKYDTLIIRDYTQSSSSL

pIC50 (monoamine oxidase MAO-B)	pEC50 [1]	pEC50 (mGluR5 receptors)	SMILES
7.43	6.52	6.72	Fc1ccccc1C#Cc1cnc2nccnc2c1 [Example 61, 7-(2-Fluoro-phenylethynyl)-pyrido[2,3-b]pyrazine]
6.28	7.04		C(#Cc1cnc2nc(N3CCCCC3)sc2c1)c1ccccc1 [Example 81, 6-Phenylethynyl-2-piperidin-1-yl-thiazolo[4,5-b]pyridine]
6.27	7.24	7.04	Fc1ccc(C#Cc2cnc3ncsc3c2)cc1 [Example 46, 6-(4-Fluoro-phenylethynyl)-thiazolo[4,5-b]pyridine]
7.05	7.00	7.27	Fc1cccc(C#Cc2cnc3nccnc3c2)c1 [Example 60, 7-(3-Fluoro-phenylethynyl)-pyrido[2,3-b]pyrazine]
